Measurements from patent US7576222B2, “Alkynyl-containing tryptophan derivative inhibitors of TACE/matrix metalloproteinase” (priority 2004, dated 2009).
pIC50: −log10 of the molar value.

molecular target: T1, catalytic domain of the recombinant TACE protein (Homo sapiens, UniProt P78536); experiment: TACE FRET assay using TACE cat; format: biochemical; details: not given
T1 construct: The catalytic domain of the recombinant TACE protein was expressed and purified; made in house
Description: TACE FRET Assay Using TACE Cat
“K” is the IC50. Generally, “n” and “B” are floated, noting that n (Hill slope) should be close to 1 and B (background offset) to 0.
Pro-TNF-α substrate peptide Abz-[…]-Dpa (AnaSpec, San Jose, Calif., WARC-1) was prepared as a 2 mM stock solution in the TACE assay buffer (50 mM Tris-HCl, pH 7.4, 25 mM NaCl, 4% Glycerol, 0.005% Brij 35). The catalytic domain of the recombinant TACE protein was expressed and purified. The TACE protein (1 ug/ml) was pretreated with the inhibitors at various concentrations for 10 min. at room temperature. The reaction was initiated by the addition of the substrate peptide. […] The initial rate (slope) of the reaction was determined using a fluorescence plate reader (Molecular Devices, Spectra Max Gemini XS).

T1 sequence (P78536 223-474 limits assumed): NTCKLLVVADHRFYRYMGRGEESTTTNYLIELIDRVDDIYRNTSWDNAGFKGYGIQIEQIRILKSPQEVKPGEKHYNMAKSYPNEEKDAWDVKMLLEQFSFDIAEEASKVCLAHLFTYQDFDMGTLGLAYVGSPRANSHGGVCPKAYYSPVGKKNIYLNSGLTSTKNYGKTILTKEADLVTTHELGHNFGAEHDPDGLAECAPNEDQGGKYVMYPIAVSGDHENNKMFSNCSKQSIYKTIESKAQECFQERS

`CC#CCOc1ccc(S(=O)(=O)N[C@@H](Cc2c(C)n(Cc3cccc(OC)c3)c3ccc(OC)cc23)C(=O)O)cc1` [Example 190, N-{[4-(but-2-ynyloxy)phenyl]sulfonyl}-5-methoxy-1-(3-methoxybenzyl)-2-methyltryptophan] was tested. Which pIC50 did it give?
The pIC50 was 6.59.

same assay, conditions: TACE FRET assay, catalytic domain of recombinant TACE; read-out: TACE IC50

With `CC#CCOc1ccc(S(=O)(=O)N[C@H](Cc2cn(Cc3ccc(C(F)(F)F)cc3)c3ccccc23)C(=O)O)cc1` [Example 41, N-{[4-(but-2-ynyloxy)phenyl]sulfonyl}-1-[4-(trifluoromethyl)benzyl]-D-tryptophan] as the compound, how does the pIC50 read?
The pIC50 was 5.36.

With `CC#CCOc1ccc(S(=O)(=O)N[C@H](Cc2cn(Cc3cccc(C(F)(F)F)c3)c3ccccc23)C(=O)O)cc1` [Example 40, N-{[4-(but-2-ynyloxy)phenyl]sulfonyl}-1-[3-(trifluoromethyl)benzyl]-D-tryptophan] as the compound, how does the pIC50 read?
Its pIC50 is 5.64.

How did the pIC50 turn out when `CC#CCOc1ccc(S(=O)(=O)N[C@H](Cc2cn(Cc3ccc(C)cc3)c3ccccc23)C(=O)O)cc1` [Example 26, N-{[4-(but-2-ynyloxy)phenyl]sulfonyl}-1-(4-methylbenzyl)-D-tryptophan] was run?
The pIC50 was 5.44.

same assay, conditions: read-out: TACE Inhibition (%)

With `CC#CCOc1ccc(S(=O)(=O)N[C@@H](Cc2cn(CC3CCCCC3)c3ccc(Cl)cc23)C(=O)O)cc1` [Example 87, N-{[4-(but-2-ynyloxy)phenyl]sulfonyl}-5-chloro-1-(cyclohexylmethyl)tryptophan] as the compound, how does the inhibition at 1 µM read?
Its inhibition at 1 µM is 37.4%.

How did the inhibition at 1 µM turn out when `CC#CCOc1ccc(S(=O)(=O)N[C@@H](Cc2cn(Cc3cccc(OC)c3)c3ccc(Cl)cc23)C(=O)O)cc1` [Example 75, N-{[4-(but-2-ynyloxy)phenyl]sulfonyl}-5-chloro-1-(3-methoxybenzyl)tryptophan] was run?
The inhibition at 1 µM was 25%.

How did the inhibition at 1 µM turn out when `CC#CCOc1ccc(S(=O)(=O)N[C@@H](Cc2cn(CC3CCC3)c3ccc(Cl)cc23)C(=O)O)cc1` [Example 86, N-{[4-(but-2-ynyloxy)phenyl]sulfonyl}-5-chloro-1-(cyclobutylmethyl)tryptophan] was run?
The inhibition at 1 µM was 15.7%.

`CC#CCOc1ccc(S(=O)(=O)N[C@@H](Cc2cn(Cc3ccc(C#N)cc3)c3ccc(C(=O)O)cc23)C(=O)O)cc1` [Example 123, N-{[4-(but-2-ynyloxy)phenyl]sulfonyl}-5-carboxy-1-(4-cyanobenzyl)tryptophan] was tested. Which inhibition at 1 µM did it give?
The inhibition at 1 µM was -2.56%.

With `CC#CCOc1ccc(S(=O)(=O)N[C@@H](Cc2cn(Cc3cccc(F)c3)c3ccc(OC)cc23)C(=O)O)cc1` [Example 59, N-{[4-(but-2-ynyloxy)phenyl]sulfonyl}-1-(3-fluorobenzyl)-5-methoxytryptophan] as the compound, how does the inhibition at 1 µM read?
The inhibition at 1 µM was 44.4%.

For `CC#CCOc1ccc(S(=O)(=O)N[C@@H](Cc2cn(Cc3ccc(C(C)C)cc3)c3ccc(OC)cc23)C(=O)O)cc1` [Example 63, N-{[4-(but-2-ynyloxy)phenyl]sulfonyl}-1-(4-isopropylbenzyl)-5-methoxytryptophan], which inhibition at 1 µM is on record?
The inhibition at 1 µM was 28.2%.

`CC#CCOc1ccc(S(=O)(=O)N[C@@H](Cc2cn(Cc3ccc(OC)cc3)c3ccc(OC)cc23)C(=O)O)cc1` [Example 53, N-{[4-(but-2-ynyloxy)phenyl]sulfonyl}-5-methoxy-1-(4-methoxybenzyl)tryptophan] was tested. Which inhibition at 1 µM did it give?
The inhibition at 1 µM was 30.6%.

How did the inhibition at 1 µM turn out when `CC#CCOc1ccc(S(=O)(=O)N[C@@H](Cc2cn(Cc3ccc(OC)cc3)c3ccc(C(=O)O)cc23)C(=O)O)cc1` [Example 109, N-{[4-(but-2-ynyloxy)phenyl]sulfonyl}-5-carboxy-1-(4-methoxybenzyl)tryptophan] was run?
The inhibition at 1 µM was 7.93%.

Which inhibition at 1 µM does the source give for `CC#CCOc1ccc(S(=O)(=O)N[C@@H](Cc2c(C)n(Cc3ccc(OC)cc3)c3ccc(OC)cc23)C(=O)O)cc1` [Example 191, N-{[4-(but-2-ynyloxy)phenyl]sulfonyl}-5-methoxy-1-(4-methoxybenzyl)-2-methyltryptophan] here?
The inhibition at 1 µM was 77.5%.

How did the inhibition at 1 µM turn out when `CC#CCOc1ccc(S(=O)(=O)N[C@@H](Cc2cn(Cc3ccc(C(F)(F)F)cc3)c3ccc(Cl)cc23)C(=O)O)cc1` [Example 77, N-{[4-(but-2-ynyloxy)phenyl]sulfonyl}-5-chloro-1-[4-(trifluoromethyl)benzyl]tryptophan] was run?
Its inhibition at 1 µM is 29.8%.

With `CC#CCOc1ccc(S(=O)(=O)N[C@@H](Cc2c(C)n(Cc3cccc(OC(F)(F)F)c3)c3ccc(OC)cc23)C(=O)O)cc1` [Example 194, N-{[4-(but-2-ynyloxy)phenyl]sulfonyl}-5-methoxy-2-methyl-1-[3-(trifluoromethoxy)benzyl]tryptophan] as the compound, how does the inhibition at 1 µM read?
Its inhibition at 1 µM is 80.8%.

How did the inhibition at 1 µM turn out when `CC#CCOc1ccc(S(=O)(=O)N[C@@H](Cc2cn(Cc3cccc(C)c3)c3ccc(C(=O)O)cc23)C(=O)O)cc1` [Example 105, N-{[4-(but-2-ynyloxy)phenyl]sulfonyl}-5-carboxy-1-(3-methylbenzyl)tryptophan] was run?
Its inhibition at 1 µM is 11%.

How did the inhibition at 1 µM turn out when `CC#CCOc1ccc(S(=O)(=O)N[C@@H](Cc2c(C)n(Cc3cccc(OC)c3)c3ccccc23)C(=O)O)cc1` [Example 147, N-{[4-(but-2-ynyloxy)phenyl]sulfonyl}-1-(3-methoxybenzyl)-2-methyltryptophan] was run?
The inhibition at 1 µM was 35.6%.

With `CC#CCOc1ccc(S(=O)(=O)N[C@@H](Cc2c[nH]c3ccc(Cl)cc23)C(=O)O)cc1` [Example 133, N-{[4-(but-2-ynyloxy)phenyl]sulfonyl}-5-chlorotryptophan] as the compound, how does the inhibition at 1 µM read?
Its inhibition at 1 µM is 73.9%.

How did the inhibition at 1 µM turn out when `CC#CCOc1ccc(S(=O)(=O)N[C@@H](Cc2c(C)n(Cc3ccc(C(F)(F)F)cc3)c3ccccc23)C(=O)O)cc1` [Example 150, N-{[4-(but-2-ynyloxy)phenyl]sulfonyl}-2-methyl-1-[4-(trifluoromethyl)benzyl]tryptophan] was run?
The inhibition at 1 µM was 35.6%.

Which inhibition at 1 µM does the source give for `CC#CCOc1ccc(S(=O)(=O)N[C@@H](Cc2cn(Cc3ccc(C)cc3)c3ccc(C#N)cc23)C(=O)O)cc1` [Example 136, N-{[4-(but-2-ynyloxy)phenyl]sulfonyl}-5-cyano-1-(4-methylbenzyl)tryptophan] here?
Its inhibition at 1 µM is 57.8%.

With `CC#CCOc1ccc(S(=O)(=O)N[C@@H](Cc2c(C)n(Cc3ccc(C#N)cc3)c3ccc(Cl)cc23)C(=O)O)cc1` [Example 98, N-{[4-(but-2-ynyloxy)phenyl]sulfonyl}-5-chloro-1-(4-cyanobenzyl)-2-methyltryptophan] as the compound, how does the inhibition at 1 µM read?
Its inhibition at 1 µM is 61%.

For `CC#CCOc1ccc(S(=O)(=O)N[C@@H](Cc2c(C)n(Cc3ccccc3C#N)c3ccccc23)C(=O)O)cc1` [Example 158, N-{[4-(but-2-ynyloxy)phenyl]sulfonyl}-1-(2-cyanobenzyl)-2-methyltryptophan], which inhibition at 1 µM is on record?
The inhibition at 1 µM was 72.1%.

With `CC#CCOc1ccc(S(=O)(=O)N[C@@H](Cc2c(C)n(Cc3ccccc3OC)c3ccc(Cl)cc23)C(=O)O)cc1` [Example 89, N-{[4-(but-2-ynyloxy)phenyl]sulfonyl}-5-chloro-1-(2-methoxybenzyl)-2-methyltryptophan] as the compound, how does the inhibition at 1 µM read?
Its inhibition at 1 µM is 53.6%.

Which inhibition at 1 µM does the source give for `CC#CCOc1ccc(S(=O)(=O)N[C@@H](Cc2cn(Cc3ccc(Cl)cc3)c3ccc(C(=O)O)cc23)C(=O)O)cc1` [Example 119, N-{[4-(but-2-ynyloxy)phenyl]sulfonyl}-5-carboxy-1-(4-chlorobenzyl)tryptophan] here?
Its inhibition at 1 µM is 11.7%.

How did the inhibition at 1 µM turn out when `CC#CCOc1ccc(S(=O)(=O)N[C@@H](Cc2cn(Cc3ccc(F)cc3)c3ccc(C#N)cc23)C(=O)O)cc1` [Example 141, N-{[4-(but-2-ynyloxy)phenyl]sulfonyl}-5-cyano-1-(4-fluorobenzyl)tryptophan] was run?
Its inhibition at 1 µM is 29.6%.

`CC#CCOc1ccc(S(=O)(=O)N[C@@H](Cc2c(C)n(Cc3ccc(C(C)C)cc3)c3ccccc23)C(=O)O)cc1` [Example 157, N-{[4-(but-2-ynyloxy)phenyl]sulfonyl}-1-(4-isopropylbenzyl)-2-methyltryptophan] was tested. Which inhibition at 1 µM did it give?
Its inhibition at 1 µM is 34.2%.

For `CC#CCOc1ccc(S(=O)(=O)N[C@@H](Cc2c(C)n(Cc3ccccc3)c3ccccc23)C(=O)O)cc1` [Example 144, 1-benzyl-N-{[4-(but-2-ynyloxy)phenyl]sulfonyl}-2-methyltryptophan], which inhibition at 1 µM is on record?
The inhibition at 1 µM was 18.8%.

Which inhibition at 1 µM does the source give for `CC#CCOc1ccc(S(=O)(=O)N[C@@H](Cc2cn(Cc3ccc(C(F)(F)F)cc3)c3ccc(C(=O)O)cc23)C(=O)O)cc1` [Example 113, N-{[4-(but-2-ynyloxy)phenyl]sulfonyl}-5-carboxy-1-[4-(trifluoromethyl)benzyl]tryptophan] here?
Its inhibition at 1 µM is -2.04%.

`CC#CCOc1ccc(S(=O)(=O)N[C@@H](Cc2cn(Cc3cccc(OC)c3)c3ccc(C(=O)O)cc23)C(=O)O)cc1` [Example 108, N-{[4-(but-2-ynyloxy)phenyl]sulfonyl}-5-carboxy-1-(3-methoxybenzyl)tryptophan] was tested. Which inhibition at 1 µM did it give?
Its inhibition at 1 µM is 9.93%.

How did the inhibition at 1 µM turn out when `CC#CCOc1ccc(S(=O)(=O)N[C@@H](Cc2cn(CC3CCC3)c3ccc(C(=O)O)cc23)C(=O)O)cc1` [Example 131, N-{[4-(but-2-ynyloxy)phenyl]sulfonyl}-5-carboxy-1-(cyclobutylmethyl)tryptophan] was run?
The inhibition at 1 µM was -1.21%.

Which inhibition at 1 µM does the source give for `CC#CCOc1ccc(S(=O)(=O)N[C@@H](Cc2cn(Cc3ccc(OC(F)(F)F)cc3)c3ccc(C(=O)O)cc23)C(=O)O)cc1` [Example 114, N-{[4-(but-2-ynyloxy)phenyl]sulfonyl}-5-carboxy-1-[4-(trifluoromethoxy)benzyl]tryptophan] here?
The inhibition at 1 µM was 10.3%.

`CC#CCOc1ccc(S(=O)(=O)N[C@@H](Cc2c(C)n(Cc3ccc(F)cc3)c3ccc(Cl)cc23)C(=O)O)cc1` [Example 95, N-{[4-(but-2-ynyloxy)phenyl]sulfonyl}-5-chloro-1-(4-fluorobenzyl)-2-methyltryptophan] was tested. Which inhibition at 1 µM did it give?
The inhibition at 1 µM was 63.6%.

Which inhibition at 1 µM does the source give for `CC#CCOc1ccc(S(=O)(=O)N[C@@H](Cc2cn(Cc3cccc(C(F)(F)F)c3)c3ccc(C(=O)O)cc23)C(=O)O)cc1` [Example 112, N-{[4-(but-2-ynyloxy)phenyl]sulfonyl}-5-carboxy-1-[3-(trifluoromethyl)benzyl]tryptophan] here?
The inhibition at 1 µM was 5.51%.
